Measured values as given in the NIST ThermoML archive (doi:10.1016/j.tca.2007.07.008).
± gives the expanded uncertainty stated by the source.

How the values were obtained:
[1] = for mass density: 298.15 K, 101.33 kPa, Liquid, Vibrating tube method
[2] = refractive index (Na D-line) (dimensionless); conditions: 298.15 K; 101.33 kPa; Liquid; Standard Abbe refractometry

Structure (SMILES) | Normal melting temperature ([1]; Crystal) | mass density [1] | refractive index [2]
CN1C(=O)N(C)C2C1N(C)C(=O)N2C (stereo unspecified) [1,3,4,6-tetramethylglycoluril] | 228 ± 4 °C |  | 
CC(=O)N(C)C [N,N-dimethylethanamide] |  | 936.5 ± 0.1 kg/m3 | 1.436 ± 0.0007
CN(C)C=O [dimethylformamide] |  | 943.93 ± 0.13 kg/m3 | 1.4276 ± 0.0007
CNC=O [N-methylformamide] |  | 998.92 ± 0.3 kg/m3 | 1.4308 ± 0.0008
CC(C)=O [acetone] |  | 784.65 ± 0.16 kg/m3 | 1.3563 ± 0.0007
NC=O [formamide] |  | 1129.15 ± 0.2 kg/m3 | 1.4465 ± 0.0007
